According to ChEMBL document CHEMBL3885881, “DrugMatrix”:

Organism: Rattus norvegicus
Test: DrugMatrix - Regimen: Daily Repeat
Format: toxicity, organism-based, Sprague-Dawley
Design: regimen Daily Repeat, gender Male, age 6-8 weeks
Conditions: in vivo, po, route oral GAVAGE, […]; for ABSOLUTE BASOPHIL / ABSOLUTE EOSINOPHIL / ABSOLUTE LYMPHOCYTE / ABSOLUTE MONOCYTE / ABSOLUTE SEGMENTED NEUTROPHIL / BASOPHIL / EOSINOPHIL / ERYTHROCYTE COUNT / HEMATOCRIT / HEMOGLOBIN / LEUKOCYTE COUNT / LYMPHOCYTE / MEAN CORPUSCULAR HEMOGLOBIN / MEAN CORPUSCULAR HEMOGLOBIN CONCENTRATION / MEAN CORPUSCULAR VOLUME / MONOCYTE / NEUTROPHIL / NUCLEATED RED BLOOD CELLS / PLATELET COUNT: tissue Blood; for ALANINE AMINOTRANSFERASE / ALBUMIN / ALKALINE PHOSPHATASE / ASPARTATE AMINOTRANSFERASE / BLOOD UREA NITROGEN / CARBON DIOXIDE / CHLORIDE / CHOLESTEROL / CREATINE PHOSPHOKINASE / CREATININE / GLUCOSE / LACTATE DEHYDROGENASE / LIPASE / PHOSPHORUS / POTASSIUM / SODIUM / TOTAL BILIRUBIN / TOTAL PROTEIN / URIC ACID: tissue Plasma
[1] = 52 mg/kg, 72 h, dose level High, time 3 day
[2] = 52 mg/kg, 120 h, dose level High, time 5 day
[3] = 72 h, dose 5.2 mg/Kg, dose level Low, time 3 day
[4] = 120 h, dose 5.2 mg/Kg, dose level Low, time 5 day

CC(C(=O)O)c1cccc(Oc2ccccc2)c1 (configuration not stated) [FENOPROFEN]
ABSOLUTE BASOPHIL [1]: 0 CELLS/uL
ABSOLUTE EOSINOPHIL [1]: 0 CELLS/uL
ABSOLUTE LYMPHOCYTE [1]: 16297.67 CELLS/uL
ABSOLUTE MONOCYTE [1]: 471.33 CELLS/uL
ABSOLUTE SEGMENTED NEUTROPHIL [1]: 2164.33 CELLS/uL
BASOPHIL [1]: 0%
EOSINOPHIL [1]: 0%
ERYTHROCYTE COUNT [1]: 5.47 x10E6/uL
HEMATOCRIT [1]: 33.6%
HEMOGLOBIN [1]: 13.27 G/DL
LEUKOCYTE COUNT [1]: 18.93 x10E3/uL
LYMPHOCYTE [1]: 87.33%
MEAN CORPUSCULAR HEMOGLOBIN [1]: 24.23 pg
MEAN CORPUSCULAR HEMOGLOBIN CONCENTRATION [1]: 39.5 G/DL
MEAN CORPUSCULAR VOLUME [1]: 61.37 fL
MONOCYTE [1]: 2.33%
NEUTROPHIL [1]: 10.33%
NUCLEATED RED BLOOD CELLS [1]: 0 /100WBC
PLATELET COUNT [1]: 1245.33 x10E3/uL
ALANINE AMINOTRANSFERASE [1]: 68.33 u/L
ALBUMIN [1]: 3.93 G/DL
ALKALINE PHOSPHATASE [1]: 437.33 u/L
ASPARTATE AMINOTRANSFERASE [1]: 102 u/L
BLOOD UREA NITROGEN [1]: 14.67 mg/dL
CARBON DIOXIDE [1]: 28.67 mmol/L
CHLORIDE [1]: 102.33 MEQ/L
CHOLESTEROL [1]: 63.33 mg/dL
CREATINE PHOSPHOKINASE [1]: 360.67 u/L
CREATININE [1]: 0.15 mg/dL
GLUCOSE [1]: 149.67 mg/dL
LACTATE DEHYDROGENASE [1]: 593 u/L
LIPASE [1]: 12 u/L
PHOSPHORUS [1]: 11.6 mg/dL
POTASSIUM [1]: 7.04 MEQ/L
SODIUM [1]: 141.5 MEQ/L
TOTAL BILIRUBIN [1]: 0.17 mg/dL
TOTAL PROTEIN [1]: 5.37 G/DL
URIC ACID [1]: 1.53 mg/dL
ABSOLUTE BASOPHIL [2]: 0 CELLS/uL
ABSOLUTE EOSINOPHIL [2]: 54 CELLS/uL
ABSOLUTE LYMPHOCYTE [2]: 12815.33 CELLS/uL
ABSOLUTE MONOCYTE [2]: 148.67 CELLS/uL
ABSOLUTE SEGMENTED NEUTROPHIL [2]: 1848.67 CELLS/uL
BASOPHIL [2]: 0%
EOSINOPHIL [2]: 0.33%
ERYTHROCYTE COUNT [2]: 5.11 x10E6/uL
HEMATOCRIT [2]: 33%
HEMOGLOBIN [2]: 13.3 G/DL
LEUKOCYTE COUNT [2]: 14.87 x10E3/uL
LYMPHOCYTE [2]: 85.67%
MEAN CORPUSCULAR HEMOGLOBIN [2]: 26 pg
MEAN CORPUSCULAR HEMOGLOBIN CONCENTRATION [2]: 40.3 G/DL
MEAN CORPUSCULAR VOLUME [2]: 64.53 fL
MONOCYTE [2]: 1%
NEUTROPHIL [2]: 13%
NUCLEATED RED BLOOD CELLS [2]: 0.33 /100WBC
PLATELET COUNT [2]: 1200 x10E3/uL
ALANINE AMINOTRANSFERASE [2]: 64.67 u/L
ALBUMIN [2]: 4.13 G/DL
ALKALINE PHOSPHATASE [2]: 380.33 u/L
ASPARTATE AMINOTRANSFERASE [2]: 93.33 u/L
BLOOD UREA NITROGEN [2]: 13.33 mg/dL
CARBON DIOXIDE [2]: 23 mmol/L
CHLORIDE [2]: 100.67 MEQ/L
CHOLESTEROL [2]: 57.33 mg/dL
CREATINE PHOSPHOKINASE [2]: 263.67 u/L
CREATININE [2]: 0.17 mg/dL
GLUCOSE [2]: 175 mg/dL
LACTATE DEHYDROGENASE [2]: 284 u/L
LIPASE [2]: 10.67 u/L
PHOSPHORUS [2]: 12 mg/dL
POTASSIUM [2]: 6.69 MEQ/L
SODIUM [2]: 141.5 MEQ/L
TOTAL BILIRUBIN [2]: 0.2 mg/dL
TOTAL PROTEIN [2]: 5.3 G/DL
URIC ACID [2]: 1.77 mg/dL
ABSOLUTE BASOPHIL [3]: 0 CELLS/uL
ABSOLUTE EOSINOPHIL [3]: 60.67 CELLS/uL
ABSOLUTE LYMPHOCYTE [3]: 12618.67 CELLS/uL
ABSOLUTE MONOCYTE [3]: 219.33 CELLS/uL
ABSOLUTE SEGMENTED NEUTROPHIL [3]: 2034.67 CELLS/uL
BASOPHIL [3]: 0%
EOSINOPHIL [3]: 0.33%
ERYTHROCYTE COUNT [3]: 5.49 x10E6/uL
HEMATOCRIT [3]: 35%
HEMOGLOBIN [3]: 14.13 G/DL
LEUKOCYTE COUNT [3]: 14.93 x10E3/uL
LYMPHOCYTE [3]: 84%
MEAN CORPUSCULAR HEMOGLOBIN [3]: 25.83 pg
MEAN CORPUSCULAR HEMOGLOBIN CONCENTRATION [3]: 40.37 G/DL
MEAN CORPUSCULAR VOLUME [3]: 63.93 fL
MONOCYTE [3]: 1.67%
NEUTROPHIL [3]: 14%
NUCLEATED RED BLOOD CELLS [3]: 0 /100WBC
PLATELET COUNT [3]: 1213.67 x10E3/uL
ALANINE AMINOTRANSFERASE [3]: 79.67 u/L
ALBUMIN [3]: 3.83 G/DL
ALKALINE PHOSPHATASE [3]: 345 u/L
ASPARTATE AMINOTRANSFERASE [3]: 100.33 u/L
BLOOD UREA NITROGEN [3]: 10.67 mg/dL
CARBON DIOXIDE [3]: 29 mmol/L
CHLORIDE [3]: 101 MEQ/L
CHOLESTEROL [3]: 66 mg/dL
CREATINE PHOSPHOKINASE [3]: 384 u/L
CREATININE [3]: 0.14 mg/dL
GLUCOSE [3]: 162.33 mg/dL
LACTATE DEHYDROGENASE [3]: 245 u/L
LIPASE [3]: 12.33 u/L
PHOSPHORUS [3]: 11.73 mg/dL
POTASSIUM [3]: 6.15 MEQ/L
SODIUM [3]: 143.37 MEQ/L
TOTAL BILIRUBIN [3]: 0.17 mg/dL
TOTAL PROTEIN [3]: 5.43 G/DL
URIC ACID [3]: 1.5 mg/dL
ABSOLUTE BASOPHIL [4]: 0 CELLS/uL
ABSOLUTE EOSINOPHIL [4]: 43 CELLS/uL
ABSOLUTE LYMPHOCYTE [4]: 9244.67 CELLS/uL
ABSOLUTE MONOCYTE [4]: 125.67 CELLS/uL
ABSOLUTE SEGMENTED NEUTROPHIL [4]: 820 CELLS/uL
BASOPHIL [4]: 0%
EOSINOPHIL [4]: 0.33%
ERYTHROCYTE COUNT [4]: 5.69 x10E6/uL
HEMATOCRIT [4]: 34.97%
HEMOGLOBIN [4]: 13.73 G/DL
LEUKOCYTE COUNT [4]: 10.23 x10E3/uL
LYMPHOCYTE [4]: 90.33%
MEAN CORPUSCULAR HEMOGLOBIN [4]: 24.13 pg
MEAN CORPUSCULAR HEMOGLOBIN CONCENTRATION [4]: 39.3 G/DL
MEAN CORPUSCULAR VOLUME [4]: 61.43 fL
MONOCYTE [4]: 1.33%
NEUTROPHIL [4]: 8%
NUCLEATED RED BLOOD CELLS [4]: 0 /100WBC
PLATELET COUNT [4]: 1094 x10E3/uL
ALANINE AMINOTRANSFERASE [4]: 64 u/L
ALBUMIN [4]: 4.07 G/DL
ALKALINE PHOSPHATASE [4]: 422.67 u/L
ASPARTATE AMINOTRANSFERASE [4]: 91.67 u/L
BLOOD UREA NITROGEN [4]: 12 mg/dL
CARBON DIOXIDE [4]: 28 mmol/L
CHLORIDE [4]: 102.33 MEQ/L
CHOLESTEROL [4]: 57.33 mg/dL
CREATINE PHOSPHOKINASE [4]: 306.67 u/L
CREATININE [4]: 0.15 mg/dL
GLUCOSE [4]: 153 mg/dL
LACTATE DEHYDROGENASE [4]: 198.33 u/L
LIPASE [4]: 11.67 u/L
PHOSPHORUS [4]: 10.13 mg/dL
POTASSIUM [4]: 6.12 MEQ/L
SODIUM [4]: 142.33 MEQ/L
TOTAL BILIRUBIN [4]: 0.13 mg/dL
TOTAL PROTEIN [4]: 5.53 G/DL
URIC ACID [4]: 1.17 mg/dL
